Results on eight compounds are retold here after patent US8273777B2, “Glucokinase activators and methods of using same” (Bristol-Meyer Squibb Company, priority 2007, dated 2012).

The target of the first test is T1, human glucokinase (GK) (Homo sapiens, UniProt P35557).
T1 construct: Full-length human hepatic GK (untagged) was expressed in BL21 STAR (DE3)pLysS cells; made in house; host or cells: E. coli BL21 STAR (DE3)pLysS (Invitrogen)
T1 sequence (P35557 1-466 isoform P35557-2): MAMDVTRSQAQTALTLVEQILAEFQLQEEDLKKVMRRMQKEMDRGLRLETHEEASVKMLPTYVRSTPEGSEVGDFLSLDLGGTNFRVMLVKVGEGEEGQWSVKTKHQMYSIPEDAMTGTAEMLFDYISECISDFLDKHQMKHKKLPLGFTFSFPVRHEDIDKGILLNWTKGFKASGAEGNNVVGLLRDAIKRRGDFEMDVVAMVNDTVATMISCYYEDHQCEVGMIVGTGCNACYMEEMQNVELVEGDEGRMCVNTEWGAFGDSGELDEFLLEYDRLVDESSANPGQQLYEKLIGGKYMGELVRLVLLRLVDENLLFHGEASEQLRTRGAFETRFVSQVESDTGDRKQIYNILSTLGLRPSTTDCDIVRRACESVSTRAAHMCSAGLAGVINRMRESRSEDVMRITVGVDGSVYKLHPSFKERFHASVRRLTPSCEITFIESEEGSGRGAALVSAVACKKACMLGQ
The test is described as follows: Glucokinase tandem enzymatic assay. It is filed as biochemical. The note with it: 12 mM glucose; EC50 = concentration to achieve 50% of full activation. The protocol: Glucokinase Tandem Enzymatic Assay
Enzymatic activity of human glucokinase (GK) was measured by incubating GK, ATP, and glucose for discrete time periods followed by quenching with EDTA (ethylenediamine tetra-acetic acid). Relative amounts of product glucose-6-phosphate (G6P) were measured by then running a detection assay using G6P dehydrogenase and measuring the conversion of ThioNAD (thio-nicotinamide adenine dinucleotide) to ThioNADH (thio-dihydronicotinamide adenine dinucleotide) at a wavelength of 405 nm. This ‘uncoupled’ enzymatic reaction is denoted as the GK ‘tandem’ assay. Activation of GK by compounds can be assessed using this assay. The GK tandem assay protocol described below was followed using a range of activator compound concentrations from 0 to 100 μM at 5 and 12 mM of glucose. Human full-length glucokinase (GK, 15 nM) was incubated with 5 or 12 mM glucose in a 384 well black microtiter plate with a clear bottom. To initiate the GK reaction, magnesium-ATP (3 mM final concentration) was added to GK in buffer (final buffer conditions of 25 mM HEPES buffer, pH 7.1, containing 1 mM dithiothreitol and 5% DMSO). The total reaction volume was 20 μL The reaction was allowed to proceed for ten minutes and was then quenched with 5 μL EDTA; 45 mM final). The components of the detection reaction, ThioNAD and G6PDH (glucose-6-phosphate dehydrogenase) (final concentrations of 650 μM and 3.33 Units, respectively), were then added together in a volume of 25 μL (to give a total volume of 50 μL). Absorbance measurements were made at 405 nm on a Spectramax Plus 384 absorbance plate reader (Molecular Devices). Absorbance was read, background glucose-6-phosphate levels were subtracted, after which activation was calculated as a percentage of control activity. Control activity was determined using GK in the presence of vehicle (DMSO), with background glucose-6-phosphate subtracted. Background glucose-6-phosphate was determined by pre-quenching GK with EDTA prior to reaction initiation with ATP.
Expression and Purification of Human GK
Full-length human hepatic GK (untagged) was expressed in BL21 STAR (DE3)pLysS cells (Invitrogen) at 25° C. as described by Mookhtiar et al. (1). The protein was purified essentially as described by Lange (2) with a slight modification. Briefly, cell pellets were lysed via three rounds of freezing and thawing, centrifuged at 15000 g for clarification, and precipitated with 40-65% (NH4)2SO4. The resulting pellet was resuspended in buffer, dialyzed, and applied directly to a Q-Sepharose (Sigma) column followed by elution with a linear 100-600 mM KCl gradient. GK containing fractions were pooled, dialyzed overnight vs. 25 mM Hepes pH 7.2/1 mM MgCl2/1 mM EDTA/0.1 M KCl/1 mM DTT, then dialyzed again with same buffer with 10% glycerol added.
In the case of `COC[C@H](C)Oc1cc(NC(=O)c2nc3ccccc3s2)cc(Oc2ccc(S(C)(=O)=O)cc2)c1` [Example 5], the midpoint of the response, the EC50, lay at 165 nM. On the same count and under the same terms, the same measure for `COC[C@H](C)Oc1cc(NC(=O)c2c[nH]cn2)cc(Oc2ccc(S(C)(=O)=O)cc2)c1` [Example 6]: 191 nM; for `COC[C@H](C)Oc1cc(NC(=O)c2cc[nH]n2)cc(Oc2ccc(S(C)(=O)=O)cc2)c1` [Example 8]: 513 nM; for `COC[C@H](C)Oc1cc(NC(=O)c2ncc(C)s2)cc(Oc2ccc(S(C)(=O)=O)cc2)c1` [Example 18]: 67 nM. Same read-out and setting: the same measure for `Cc1cnc(C(=O)Nc2cc(Oc3ccc(S(C)(=O)=O)cc3)cc(O[C@@H](C)CO)c2)s1` [Example 22]: 77 nM; for `CS(=O)(=O)c1ccc(Oc2cc(NC(=O)c3c[nH]cn3)cc(Oc3ccc(S(C)(=O)=O)cc3)c2)cc1` [Example 31]: 575 nM.

Staying with this test, now noted: 12 mM glucose; expressed as % of basal activation; EC50 could not be calculated; read-out: Maximal activation (%) Human Glucokinase @ 12 mM Glucose.
For the compound `COC[C@H](C)Oc1cc(NC(=O)c2ncn[nH]2)cc(Oc2ccc(S(C)(=O)=O)cc2)c1` [Example 7], the Emax is 131%. Turning to `CS(=O)(=O)c1ccc(Oc2cc(NC(=O)c3nccs3)cc(C(F)(F)F)c2)cc1` [Example 37], the Emax is 163%.

The test system of the next test is male DIO (diet-induced obese) C57BL/6J mice. Nature of the test: Oral glucose tolerance test (OGTT) in DIO mice. The test is classed as in vivo. As to conditions: 30 mg/kg dose, given orally 60 min before glucose 2 g/kg, ΔAUC 0-120 min. On the procedure: In Vivo Studies: Oral Glucose Tolerance Test (OGTT)
Oral glucose tolerance tests were carried out on male DIO (diet-induced obese) C57BL/6J mice fed a high fat diet (60% kcal from fat) for 26 weeks prior to experimentation. Mice were fasted overnight before use for experiments. A test compound or vehicle (10% dimethyl acetamide +10% ethanol +10% Cremophore +70% water) was given orally 60 min before oral administration of a glucose solution at a dose of 2 g/kg body weight (oral glucose tolerance test; OGTT). Blood glucose levels were measured from tail-bled samples taken at different time points before and after administration of glucose (time course of 2 hours). A time curve of the blood glucose was generated and the change from baseline area-under-the curve (ΔAUC) from 0-120 min was calculated (the time glucose administration being time zero).
As to `COC[C@H](C)Oc1cc(NC(=O)c2c[nH]cn2)cc(Oc2ccc(S(C)(=O)=O)cc2)c1` [Example 6], the “reduction of glucose AUC levels in OGTT” value amounted to 66%.
